Results on 2 molecules are retold here after patent US6028109A, “Use of agonists of the peroxisome proliferator activated receptor alpha for treating obesity” (Glaxo Wellcome Inc., priority 1996, dated 2000).

As usually defined, the EC50 is the midpoint of the concentration-response curve.

In one assay the test system is GST-PPARα. Briefly: Competition binding for PPARα against the radioligand of Example 2. The settings on record: 100 nM radioligand of Example 2, 1000-fold excess (100 microM) of competitor; no competitor 40,200 cpm bound. As to the method: a) Binding of the radioligand of Example 2 to PPARα The ligand binding domains of mouse and human PPARα were expressed in E. Coli as fusion proteins with glutathione-S-transferase (GST). DNA encoding the ligand binding domain of mouse and human PPARa was amplified via polymerase chain reaction and inserted in-frame into the bacterial expression vector pGEX-2T (Pharmacia). GST-mPPARα and GST-hPPARa fusion proteins were expressed in BL21(DE3)plysS cells. After a 2 hour induction with 1 mM IPTG, the cells were lysed by freeze/thaw in 1/10 volumes of a buffer containing 50 mM Tris (pH 8), 250 mM KCl, 10 mM DTT, 1 mM PMSF, and 1% Triton X-100. Lysates were clarified by centrifugation for 1 hr at 50,000 x g. 1.5 ml of a 50% glutathione-sepharose bead (Pharmacia)/phosphate buffered saline slurry was added to 10 ml of clarified lysate, the mixture incubated for 30 minutes, and the glutathione-sepharose bead-GST-PPARα complexes were then collected by centrifugation and washed twice in binding buffer containing 50 mM KCl, 10 mM Tris (pH 8), 1 mM DTT. The washed glutathione-sepharose bead-PPARα complexes were resuspended in 0.75 ml binding buffer containing 10% glycerol. […]

Assay [1] in a line: Change of body weight in hamsters on 1% cholesterol chow, 14 days oral dosing. The settings on record: for change of body weight (gained): diet-only control gained 23.2 g; for change of body weight (lost): Compound B Test, diet-only control gained 13 g. It counts as in vivo, Golden Syrian hamsters. As to the method:
Male Golden Syrian hamsters (supplied by Charles River), weighing approximately 140-150 g at the start of the study, were subjected to the following dietary regime. On day 0, four groups of animals (n=6/group) were begun on a diet consisting of rodent chow containing 1% cholesterol. Three of the four groups on the cholesterol diet also began oral dosing with Compound A as described in Example 3 ([…]). Compound A was given as a suspension in 5% bicarbonate and 0.5% methyicellulose. The study was carried out for 14 days.
The above dietary regime was also carried out with Compound B, but the dosages of Compound B employed were 0.1, 0.5 and 1mglkg/day.
The changes of body weight observed were as follows: […]

The next assay deals with T1, hPPARα (Homo sapiens, UniProt Q07869).
T1 construct: amino acids 174-475 of PPARα; expressed in transfected cells; host or cells: CV-1 cells
T1 sequence (Q07869 167-468 limits assumed): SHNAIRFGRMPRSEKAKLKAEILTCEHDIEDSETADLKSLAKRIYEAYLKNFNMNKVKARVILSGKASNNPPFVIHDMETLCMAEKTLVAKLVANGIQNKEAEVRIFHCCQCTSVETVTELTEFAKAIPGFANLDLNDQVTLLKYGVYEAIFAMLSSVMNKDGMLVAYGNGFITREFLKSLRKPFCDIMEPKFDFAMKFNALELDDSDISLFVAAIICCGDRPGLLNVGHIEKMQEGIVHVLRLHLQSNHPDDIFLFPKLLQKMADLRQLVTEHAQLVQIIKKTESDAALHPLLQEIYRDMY
Description: Transient cotransfection assay, GAL4-PPARα chimera in CV-1 cells (human PPARα). The settings on record: transfection assay. It counts as cell-based. An excerpt: (§1) A transient cotransfection assay was used to screen for PPARα activator activity of compounds of formula (I).
(§2) As mammalian cell lines contain endogenous nuclear receptors that can complicate interpretation of the results, we used an established chimera system in which the ligand-binding domain of the PPAR-α was fused to the DNA binding domain of the yeast transcription factor GAL4.The GAL4-PPARα chimera was cotransfected into CV-1 cells with a reporter construct containing five copies of the GAL4 binding site upstream of the thymidine kinase promotor driving secreted placental alkaline phosphatase (SPAP) as reporter.
(§3) GAL4-PPAR chimera and UAS-tk-CAT/SPAP reporters. […]
(§4) Transfection assay; SPAP reporter. […] 16 h later the medium was exchanged to DME medium supplemented with 10% delipidated fetal calf serum and the test compound at a concentration of 10^-5 M. After incubation for an additional 24 h SPAP activity and β-galactosidase activity were measured as previously described (Pfahl et al., 1990).
(§5) Transfection assay: CAT reporter. […] After incubation for an additional 24 h, chloramphenicol acetyl transferase (CAT) activity and β-galactosidase activity were measured as previously described (Pfahl et al., 1990). […]

The target in another assay is T2, mPPARα (Mus musculus, UniProt P23204).
T2 construct: amino acids 174-475 of PPARα; expressed in transfected cells; host or cells: CV-1 cells
T2 sequence (P23204 167-468 limits assumed): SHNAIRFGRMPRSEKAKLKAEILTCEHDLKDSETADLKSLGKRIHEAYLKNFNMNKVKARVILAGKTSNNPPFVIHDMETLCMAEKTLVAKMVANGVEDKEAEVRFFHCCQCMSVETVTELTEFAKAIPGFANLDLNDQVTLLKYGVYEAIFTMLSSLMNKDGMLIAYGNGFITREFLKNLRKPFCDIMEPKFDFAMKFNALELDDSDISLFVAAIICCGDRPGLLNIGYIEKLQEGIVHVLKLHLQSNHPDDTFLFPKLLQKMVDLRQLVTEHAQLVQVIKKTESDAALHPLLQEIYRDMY
Description: Transient cotransfection assay, GAL4-PPARα chimera in CV-1 cells (mouse PPARα). It counts as cell-based. The settings on record: transfection assay.
From the text: as §1, §2, §3, §4, §5

Each structure is given as a SMILES string.

For `CCCCCCCN(CCc1ccc(OC(C)(C)C(=O)O)cc1)C(=O)Nc1ccc(F)cc1` [Compound A, 2-(4[2-(3-[4-fluorophenyl]-1-heptylureido)ethyl]-phenoxy)-2-methylpropionicacid], the cpm bound in the assay on GST-PPARα is on record as 18,300 cpm. Further, the “change of body weight (gained)” value in assay [1] (0.05 mg/kg/day oral) is on record as 20 g; in assay [1] (0.1 mg/kg/day oral, Compound A Test) it was 26.2 g; in assay [1] (0.25 mg/kg/day oral), 12.6 g; in assay [1] (0.5 mg/kg/day oral, Compound A Test), 3.4 g. In addition, the half-maximal effective concentration (EC50) stood at 545 nM at hPPARα and 13 nM at mPPARα.

Turning to `CCCCCCCN(CCc1ccc(OC(C)(C)C(=O)O)cc1)C(=O)Nc1ccc(F)cc1F` [Compound B, 2-(4-[2-(3-[2,4-difluorophenyl]-1-heptylureido)ethyl]-phenoxy)-2-methylpropionic acid], the cpm bound with GST-PPARα is given as 13,000 cpm. In addition, the “change of body weight (lost)” value in assay [1] (0.5 mg/kg/day oral) stood at 12.3 g; in assay [1] (1 mg/kg/day oral) it was 12.4 g. Also, the concentration giving a half-maximal response (EC50) was 720 nM on hPPARα and 25 nM at mPPARα.
